In US8980564B2, “Predictive markers for taxane responsiveness and methods of use thereof” (The Governors of the University of Alberta, priority 2009, dated 2015):

Key:
Bad = test: Subcellular fractionation, Bad localization by Western blotting; details: MCF-7, MDA-MB-468, SKBR-3; 25 nM paclitaxel 48 h or 2.5 uM STS 4 hours
Bad:Bcl-XL = test: Co-immunoprecipitation of Bad with Bcl-XL; details: 25 nM paclitaxel 48 h or 2.5 uM STS 4 hours
MCF-7 cells = test: DNA content analysis by propidium iodide staining (cell cycle); type: cell-based, human; details: up to 24 hours in paclitaxel
Method: Samples were fixed at −20° C. in ice-cold 70% ethanol for a minimum of 24 hours. After fixation, the samples were stained with 20 ug/ml propidium iodide, 2 mg/ml RNase, 0.1% Triton X-100 in PBS for 30 minutes at 4° C. Samples were analyzed in the FL-2 channel on the FACScan as previously described, with the exception that doublet discrimination was achieved by gating on the smaller width G2 cells as determined by analysis of pulse width versus pulse area (Goping et al., 2008).
To verify that the increased proportion of cells in G1 was due to delayed G1 exit and not increased G1 entry, G1 entry was inhibited by arresting cells at G2/M with paclitaxel. […] In time course analyses, the progression of cells from G1 through S to G2/M was delayed in Bad-depleted cells relative to control transfected cells. […] Based on these observations, and again while not wishing to be bound by theory, it was concluded that Bad contributes to cell cycle progression by facilitating exit from the G1 phase of the cell cycle and is supported by a similar role of Bad in rat fibroblasts (Chattopadhyay et al., 2001).

breast cancer cell lines = test: Apoptosis assays (TMRE loss, annexin V) in a panel of five breast cancer cell lines; type: cell-based, human; details: 25 nM paclitaxel; TMRE loss and annexin V positivity
Method: (§1) Apoptosis assays were performed as described previously (Czernick et al., 2009). Briefly, breast cancer cell lines were treated with dimethyl sulfoxide (DMSO) vehicle control or 25 nM paclitaxel, which corresponds to a clinically relevant dose (Blagosklonny and Fojo, 1999; Jordan et al., 1996). After treatment, samples were divided and analyzed for apoptosis. Apoptosis was evaluated by fluorescence-activated cell sorting (FACS) analysis using the following apoptotic markers: (i) mitochondrial dysfunction [loss of mitochondrial electrochemical potential and decreases in tetramethyl rhodamine ethyl ester (TMRE)]. Percent specific TMRE loss was determined as (% TMRE negative cells of treated sample−% TMRE negative cells of untreated control sample); (ii) increases in phosphatidylserine externalization (Annexin V). Percent specific annexin V positivity was determined as (% annexin V positive cells of treated sample−% annexin V positive cells of untreated control sample).
To investigate which BH3-only proteins are involved in paclitaxel-induced apoptosis, a panel of five validated breast cancer cell lines acquired from Dr. Gordon Mills (M.D. Anderson Cancer Center, U. of Texas) was analyzed; validated cells were used to avoid any controversy with respect to lineage authenticity (Graham et al., 1986; Osborne et al., 1987). […]

Bcl-XL = Bcl-XL protein level in treated cells; type: cell-based, human; details: paclitaxel-treated cells
Source text: In fact, mitotic arrest-mediated repression of Bcl-XL contributes to cell death via liberation of Bax (Upreti et al., 2008).

MCF-7 cell line = test: Apoptosis assays (TMRE loss, annexin V) in MCF-7; type: cell-based, human; details: 25 nM paclitaxel
Method: as §1
Each cell line was treated with 25 nM of paclitaxel, which induces a clinically relevant intracellular accumulation of the drug in tissue culture conditions (Derry et al., 1998; Jordan et al., 1996). After the indicated amount of time, apoptosis was assessed by measuring mitochondrial electrochemical potential loss (TMRE loss) and phosphatidyl serine externalization (annexin V positivity) (FIG. 1A).

breast cancer = test: Survival analysis of breast cancer patients after adjuvant docetaxel-based chemotherapy, stratified by Bad staining; type: in vivo, human; details: 180 women, multivariate modeling
Method: Tissue micoarrays were made from formalin fixed breast tissues in triplicate 0.6 mm cores using the TMArrayer™. Tissues on slides were deparaffinized in xylene and rehydrated in decreasing concentrations of ethanol to water. Endogenous peroxidase was quenched in 0.3% H2O2 for 10 minutes. For antigen retrieval, slides were placed in boiling citrate buffer pH 6.0 for 10 minutes followed by rinsing in water for 10 minutes. Tissues were incubated with the BAD antibody (Cell Signaling Technology) at a dilution of 1/25 at 4° C. overnight in a humidified container or with Bik antibody (Cell signaling Technology) at a dilution of 1/50 at room temperature in a humidified container. Slides were washed 2 times in PBS for 5 minutes. For the secondary antibody, Anti-Rabbit EnVision+System-HRP (Dako) was incubated on the tissues at room temperature for 30 minutes. Slides were washed 2 times in PBS and then tissues were incubated with DAB (Dako) for 10 minutes. Slides were rinsed in water for 10 minutes followed by a soak in 1% Copper Sulfate for 5 minutes. Haematoxylin was used to counterstain the tissues. […] Staining intensity was scored as 0 (absent), 1 (weak), or 2 (strong). […] Using ROC, an optimized cutpoint of 0.57 was chosen for Bad expression and an optimized cutpoint of 0.1 was chosen for Bik expression, and patients were analyzed based on this cutpoint. […]

| SMILES | mitochondrial translocation of Bad (Bad) | association of Bad and Bcl-XL (Bad:Bcl-XL) | mitotic arrest (G2/M) (MCF-7 cells) | relative paclitaxel sensitivities of the breast cancer cell lines, rank order of increasing sensitivity (breast cancer cell lines) | levels of Bcl-XL protein (Bcl-XL) | cell death based on mitochondrial dysfunction and cellular morphology (MCF-7 cell line; MCF-7) | loss of mitochondrial potential (TMRE loss) (MCF-7 cell line; MCF-7) | phosphatidyl serine externalization (annexin V positivity) (MCF-7 cell line; MCF-7, cells do not express caspase 3) | hazard ratio of relapse, low Bad tumour staining intensity (breast cancer; 95% CI 1.05-3.66) | death hazard ratio, low Bad tumour staining intensity (breast cancer; 95% CI 1.05-3.66 as printed) |
| --- | --- | --- | --- | --- | --- | --- | --- | --- | --- | --- |
| CN[C@@H]1C[C@H]2O[C@@](C)([C@@H]1OC)n1c3ccccc3c3c4c(c5c6ccccc6n2c5c31)C(=O)NC4 [STS, staurosporine] | migrated to mitochondria | remained as a complex |  |  |  |  |  |  |  |  |
| CC(=O)O[C@H]1C(=O)[C@@]2(C)[C@H]([C@H](OC(=O)c3ccccc3)[C@]3(O)C[C@H](OC(=O)[C@H](O)[C@@H](NC(=O)c4ccccc4)c4ccccc4)C(C)=C1C3(C)C)[C@]1(OC(C)=O)CO[C@@H]1C[C@@H]2O [paclitaxel] | did not induce mitochondrial translocation of Bad | decreased association of Bad and Bcl-XL | induced mitotic arrest | MDA-MB-231, T47-D, MDA-MB-468, MCF-7 and SKBR-3 | reduced levels of Bcl-XL protein | induced significant death | robust loss of mitochondrial potential | blunted |  |  |
| CC(=O)O[C@@]12CO[C@@H]1C[C@H](O)[C@@]1(C)C(=O)[C@H](O)C3=C(C)[C@@H](OC(=O)[C@H](O)[C@@H](NC(=O)OC(C)(C)C)c4ccccc4)C[C@@](O)([C@@H](OC(=O)c4ccccc4)[C@H]21)C3(C)C [docetaxel] |  |  |  |  |  |  |  |  | 1.96 | 3.65 |
